Measurements from patent publication US20220135538A1, “P300/CBP HAT INHIBITORS AND METHODS FOR THEIR USE” (Constellation Pharmaceuticals, Inc., priority 2019, published 2022).

Columns and labels:
[1] = target: T1, p300 HAT domain (residues 1287-1666) (Homo sapiens, UniProt Q09472); test: P300 HAT SPA assay (scintillation proximity, acetylation of biotinylated H3(1-21) peptide); assay type: biochemical; conditions: 6 nM p300-HAT domain; average of at least 2 replicate titrations
T1 construct: The p300 HAT domain (residues 1287-1666) was expressed; His tag (N); made in house; host or cells: Escherichia coli
T1 sequence (Q09472 1287-1666): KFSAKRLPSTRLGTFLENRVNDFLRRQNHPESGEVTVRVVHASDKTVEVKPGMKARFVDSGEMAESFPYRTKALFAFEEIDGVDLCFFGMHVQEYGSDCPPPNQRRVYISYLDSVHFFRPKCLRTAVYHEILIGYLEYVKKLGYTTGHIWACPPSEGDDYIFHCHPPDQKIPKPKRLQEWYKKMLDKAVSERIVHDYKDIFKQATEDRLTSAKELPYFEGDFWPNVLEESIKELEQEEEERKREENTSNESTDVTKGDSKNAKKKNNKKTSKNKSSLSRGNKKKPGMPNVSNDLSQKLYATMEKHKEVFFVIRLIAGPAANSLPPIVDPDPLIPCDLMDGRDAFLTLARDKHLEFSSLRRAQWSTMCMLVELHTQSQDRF
Description: The activity of the compounds described herein as p300/CBP HAT inhibitors may be readily determined using a scintillation proximity assay (SPA) methodology (Udenfriend, S.; Gerber, L.; Nelson, N. Scintillation Proximity Assay: A Sensitive and Continuous Isotopic Method for Monitoring Ligand/Receptor and Antigen/Antibody Interactions. Anal. Biochem. 1987, 161, 494-500).
In a typical experiment the p300 HAT inhibitory activity of the compounds described herein was determined in accordance with the following experimental method.
The p300 HAT domain (residues 1287-1666) was expressed and purified with an N-terminal His tag from Escherichia coli cells. The expressed protein was purified by Ni2+affinity, followed by anion exchange chromatography. Appropriate fractions were pooled and buffer exchanged into 20 mM Hepes pH 7.5, 150 mM NaCl, and 1 mM TCEP.
(§1) Compounds of interest solubilized in DMSO were stamped in a Greiner black 384-well plate in a 10-point duplicate dose response using an Echo 550 (Labcyte). p300-HAT domain purified in-house (aa 1287-1666) was diluted to 6 nM in reaction buffer (50 mM Tris pH 8.0, 100 mM NaCl, 1 mM DTT, 0.069 mM Brij-35, 0.1 mM EDTA, 0.1 mg/mL BSA), combined with 4.14 μM AcCoA (Sigma-Aldrich) and 0.46 μM ^3H-AcCoA (PerkinElmer), and 12.5 μL added to each well and incubated for 30 min at RT. Reactions were initiated with 12.5 μL 2 μM biotinylated H3(1-21) peptide (New England Peptide) and run for 1 hr at RT, then quenched with 20 μL stop solution (200 mM Tris pH 8.0, 200 mM EDTA, 2M NaCl, 160 μM anacardic acid). 35 μL of the reaction volume was transferred to a 384-well streptavidin FlashPlate (PerkinElmer) using a Bravo liquid handler (Velocity 11) and incubated for 1.5 hr at RT. Plates were aspirated, washed with 95 μL wash buffer (15 mM Tris pH 8.5, 0.069 μM Brij-35), aspirated, sealed, and scintillation counts read on a Topcount (PerkinElmer). Data were analyzed in Genedata to determine inhibitor IC50 values.

full length p300 = target: T2, full length p300 (Homo sapiens, UniProt Q09472); test: Full length p300 SPA assay; assay type: biochemical; conditions: 6 nM purified full length p300; read-out: FL P300 IC50
T2 construct: used 6 nM purified full length p300 (purchased from Active Motif); purchased Active Motif
T2 sequence (Q09472 whole entry): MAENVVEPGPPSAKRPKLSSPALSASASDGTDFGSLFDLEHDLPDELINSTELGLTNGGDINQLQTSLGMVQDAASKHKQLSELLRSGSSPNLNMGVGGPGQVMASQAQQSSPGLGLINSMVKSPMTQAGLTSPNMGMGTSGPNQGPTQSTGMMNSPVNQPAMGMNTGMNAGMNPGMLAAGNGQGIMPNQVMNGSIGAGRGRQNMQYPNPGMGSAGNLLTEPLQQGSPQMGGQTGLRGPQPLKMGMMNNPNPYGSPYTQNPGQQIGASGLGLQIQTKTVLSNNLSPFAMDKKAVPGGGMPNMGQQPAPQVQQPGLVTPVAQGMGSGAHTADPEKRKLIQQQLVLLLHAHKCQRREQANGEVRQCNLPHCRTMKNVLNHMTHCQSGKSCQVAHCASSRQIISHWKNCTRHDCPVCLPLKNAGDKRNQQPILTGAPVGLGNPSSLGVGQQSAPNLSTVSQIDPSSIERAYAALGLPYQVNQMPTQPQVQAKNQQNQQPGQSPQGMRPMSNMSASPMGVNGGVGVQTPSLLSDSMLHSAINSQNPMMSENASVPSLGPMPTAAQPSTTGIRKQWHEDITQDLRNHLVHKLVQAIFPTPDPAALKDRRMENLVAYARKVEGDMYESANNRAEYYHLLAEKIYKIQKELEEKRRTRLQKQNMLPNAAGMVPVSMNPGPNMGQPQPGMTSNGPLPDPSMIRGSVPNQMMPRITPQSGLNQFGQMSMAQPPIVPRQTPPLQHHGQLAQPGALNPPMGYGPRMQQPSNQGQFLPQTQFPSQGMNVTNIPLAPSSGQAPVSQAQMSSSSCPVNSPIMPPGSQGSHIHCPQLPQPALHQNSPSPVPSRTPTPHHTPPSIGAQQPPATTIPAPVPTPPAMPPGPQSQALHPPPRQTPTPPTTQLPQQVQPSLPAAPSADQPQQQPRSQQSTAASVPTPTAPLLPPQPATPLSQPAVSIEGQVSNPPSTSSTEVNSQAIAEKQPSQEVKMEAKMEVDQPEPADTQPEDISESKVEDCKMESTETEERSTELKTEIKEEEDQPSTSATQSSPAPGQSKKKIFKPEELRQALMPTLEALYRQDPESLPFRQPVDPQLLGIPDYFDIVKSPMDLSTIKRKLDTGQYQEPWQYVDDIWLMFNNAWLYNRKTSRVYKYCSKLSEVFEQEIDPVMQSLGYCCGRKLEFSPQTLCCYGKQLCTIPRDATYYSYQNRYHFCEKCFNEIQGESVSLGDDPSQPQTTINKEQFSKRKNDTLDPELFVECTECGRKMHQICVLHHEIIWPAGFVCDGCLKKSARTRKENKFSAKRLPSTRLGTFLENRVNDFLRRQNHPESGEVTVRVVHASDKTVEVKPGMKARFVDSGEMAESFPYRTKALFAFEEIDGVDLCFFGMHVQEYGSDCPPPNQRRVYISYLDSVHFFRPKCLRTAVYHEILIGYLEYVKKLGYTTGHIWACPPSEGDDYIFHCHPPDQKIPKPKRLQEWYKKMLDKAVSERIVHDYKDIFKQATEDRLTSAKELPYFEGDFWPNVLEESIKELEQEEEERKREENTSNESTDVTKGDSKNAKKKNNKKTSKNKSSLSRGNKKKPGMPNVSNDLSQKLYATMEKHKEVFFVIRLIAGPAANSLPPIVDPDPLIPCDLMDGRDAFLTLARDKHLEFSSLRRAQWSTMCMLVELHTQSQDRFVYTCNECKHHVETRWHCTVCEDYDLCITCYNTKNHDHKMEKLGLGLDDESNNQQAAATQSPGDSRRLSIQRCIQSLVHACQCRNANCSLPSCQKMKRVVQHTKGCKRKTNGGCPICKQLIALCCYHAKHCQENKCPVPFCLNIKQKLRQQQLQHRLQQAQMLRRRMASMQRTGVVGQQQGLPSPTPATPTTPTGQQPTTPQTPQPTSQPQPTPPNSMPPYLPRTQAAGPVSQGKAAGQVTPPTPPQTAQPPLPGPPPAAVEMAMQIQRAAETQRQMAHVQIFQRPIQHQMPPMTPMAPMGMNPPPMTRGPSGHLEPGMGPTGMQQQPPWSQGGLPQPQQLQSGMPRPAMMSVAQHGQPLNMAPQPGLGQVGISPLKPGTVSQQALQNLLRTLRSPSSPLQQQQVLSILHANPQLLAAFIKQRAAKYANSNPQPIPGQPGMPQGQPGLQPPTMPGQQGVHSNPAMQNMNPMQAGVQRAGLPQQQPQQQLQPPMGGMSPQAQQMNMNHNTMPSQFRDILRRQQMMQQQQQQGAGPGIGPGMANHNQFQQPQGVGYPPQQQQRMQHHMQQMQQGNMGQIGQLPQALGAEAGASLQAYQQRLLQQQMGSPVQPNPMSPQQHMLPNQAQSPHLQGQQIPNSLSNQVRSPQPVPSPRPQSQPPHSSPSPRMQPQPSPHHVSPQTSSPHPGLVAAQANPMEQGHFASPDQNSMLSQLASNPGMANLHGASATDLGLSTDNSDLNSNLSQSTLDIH
Description: as §1
The full length p300 SPA assay was run following the same protocol as p300 HAT SPA assay, but used 6 nM purified full length p300 (purchased from Active Motif) in place of the purified p300-HAT domain.

[2] = system: acetylation of chromatin at H3K18 in HCT-116 cells; test: H3K18Ac MSD cellular assay; assay type: cell-based; conditions: Homo sapiens, 2 hr treatment
Description: Select compounds were also evaluated in a H3K18Ac MSD cellular assay that measures the ability of compounds to inhibit the acetylation of chromatin at H3K18, a process catalyzed by p300 and CBP. In a typical experiment the p300 HAT inhibitory activity inside cells of the compounds described herein was determined in accordance with the following experimental method. 20 k HCT-116 cells per well are plated in 75 μL RPMI+10% FBS media the night before treatment. Compounds plated in DMSO at 4× final concentration are resuspended in 30 μL RPMI+10% FBS, then 25 μL is combined with corresponding wells containing cells. Treated cells are incubated for 2 hr at 37° C., then lysed in 500 μL final volume and frozen at −80° C. MSD plates (Meso Scale Discovery) are coated overnight at 4° C. with 60 μL 1:500 α-total histone antibody (Millipore MAB3422) in PBS. Plates are then blocked with 5% BSA in TBST shaking at RT for 1 hr, washed, and 30 μL lysate added to each well for 2 hr shaking at RT. Plates are washed and 25 μL 1:216 α-H3K18ac antibody (CST 9675) in PBS added, then incubated for 1 hr shaking at RT. Plates are washed again, then 25 μL 1:1000 Sulfo-Tag goat α-rabbit antibody (Meso Scale Discovery R32Ab-1) in PBS is added for 1 hr shaking at RT. Plates are washed once more, then 150 μL 1× Read Buffer (MSD #R92TD-3) is added to all wells and read on MSD SECTOR Imager 2400 using the conventional read setup.

| SMILES | IC50 [1] [nM] | IC50 (full length p300) [nM] | EC50 [2] [nM] |
| --- | --- | --- | --- |
| CN1CCC(Oc2ccc(NC(=O)C(NCCc3ccc(C#N)cc3)c3ccccc3)nc2)CC1 (single isomer, unassigned) [1 Isomer 1] | 27.7 | < 2 | 35 |
| CN1CCC(Oc2ccc(NC(=O)C(NCCc3ccc(C#N)cc3)c3ccccc3)nc2)CC1 (single isomer, unassigned) [1 Isomer 2] | > 5000 | 240 | – |
| CC(=O)N1CC(Oc2ccc(NC(=O)C(NC[C@@H](C)c3ccc(C#N)cc3)c3ccccc3)nc2)C1 (single isomer, unassigned) [2 Isomer 1] | 21.2 | < 2 | 20 |
| N#Cc1ccc(CCNC(C(=O)Nc2ccc(OC3CCOCC3)cn2)c2ccccc2)cc1 (single isomer, unassigned) [5 Isomer 1] | 97.6 | 3.69 | – |
| N#Cc1ccc(CCNC(C(=O)Nc2ccc(OC3CCOCC3)cn2)c2ccccc2)cc1 (single isomer, unassigned) [5 Isomer 2] | > 2000 | 137 | – |
| Cn1cc(COc2ccc(NC(=O)C(NCCc3ccc(Cl)cc3)c3ccccc3)nc2)cn1 (single isomer, unassigned) [8 Isomer 2] | 16.8 | – | 69 |
| CC(=O)N1CCC(Oc2ccc(NC(=O)C(NCCc3ccc(C#N)cc3)c3ccccc3)nc2)CC1 (single isomer, unassigned) [9 Isomer 1] | 56.4 | 4.21 | – |
| CC(=O)N1CCC(Oc2ccc(NC(=O)C(NCCc3ccc(C#N)cc3)c3ccccc3)nc2)CC1 (single isomer, unassigned) [9 Isomer 2] | > 2000 | 102 | – |
| CC(CNC(C(=O)Nc1ccc(OC2CN(C(=O)C3CC3)C2)cn1)c1ccccc1)c1ccc(C#N)cc1 (single isomer, unassigned) [21 Isomer 1] | 27.4 | < 2 | – |
| CC(=O)N1CC(Oc2ccc(NC(=O)C(NCC(C)c3ccc(C#N)cc3)c3cccc(F)c3)nc2)C1 (single isomer, unassigned) [23 Isomer 1] | 23.3 | < 3 | 31.9 |
| CC(=O)N1CC(Oc2ccc(NC(=O)C(NCC(C)c3ccc(C#N)cc3)c3cnn(C)c3)nc2)C1 (single isomer, unassigned) [24 Isomer 1] | 38 | < 3 | 57 |
| CC(=O)N1CC(Oc2ccc(NC(=O)C(NCC(C)c3ccc(C#N)cc3)c3cnn(C)c3)nc2)C1 (single isomer, unassigned) [24 Isomer 4] | > 2000 | – | – |
| CC(CNC(C(=O)Nc1ccc(OC2CN(C(=O)OC(C)(C)C)C2)cn1)c1ccccc1)c1ccc(C#N)cc1 (single isomer, unassigned) [25 Isomer 1] | > 1000 | – | – |
| CC(CNC(C(=O)Nc1ccc(OC2CN(C(=O)OC(C)(C)C)C2)cn1)c1ccccc1)c1ccc(C#N)cc1 (single isomer, unassigned) [25 Isomer 2] | 115 | – | – |
